Experimental data taken from paper PMC3495945, “Org 214007-0: A Novel Non-Steroidal Selective Glucocorticoid Receptor Modulator with Full Anti-Inflammatory Properties and Improved Therapeutic Index” (PLoS ONE, 2012).
Read-outs that look alike come from different tables or passages of the source.

What was measured:
THP-1 cells [1] = assay: Gene expression profiling (microarray) in THP-1 cells; format: cell-based, human; settings: THP-1, 1 μM, 6 hours, top 25 genes, prednisolone set at 100%; for Max. eff., mean repression of genes, microarray: IFNγ/TNFα; for Max. eff., mean induction of genes, microarray: non-stimulated
Method: (§1) THP-1 cells were incubated with glucocorticoid in the presence of either DMSO (control) or IFNγ/TNFα (220 ng/ml/375 ng/ml). After 6 hours total RNA was isolated and further processed for microarray hybridization as described for the HepG2 cells. The data from all microarray experiments have been deposited in the NCBI Gene Expression Omnibus (GEO) under accession number (identifier will be included in proof). […] Expression of FKBP51, MCP-1, IL-6 and IL-8 protein was measured by specific […]; #A[…] [MCP-1], #A[…] [IL-6] and #A[…] [IL-8]) according to the manufacturer manual. […] Expression of FKBP51, DUSP1 and GILZ was measured by Q-PCR according to the same procedure as described for the HepG2 cells. In this case the following primer-pairs were used: for GAPDH: [NT] and [NT]; for FKBP51: [NT] and [NT]; for DUSP1: [NT] and [NT]; for GILZ: [NT] and [NT]. For the evaluation of protein expression, cells were incubated overnight with a whole dose range of compounds. Supernatants were collected to determine cytokine levels and cell lysates were generated by repeated freeze-thaw cycles to measure expression of FKBP51 protein. Expression of FKBP51, MCP-1, IL-6 and IL-8 was measured by specific […]; #A[…] [MCP-1], #A[…] [IL-6] and #A[…] [IL-8]) according to the manufacturer manual. […] Samples were incubated for 60 min at 23 C. […] Plates were measured using an EnVision-Alpha Reader.

THP-1 cells [2] = assay: THP-1 induction of FKBP51, GILZ, DUSP1; format: cell-based, human; settings: for EC50: Homo sapiens, THP-1, no stimulus; for Max. eff., DUSP1 induction / Max. eff., FKBP51 induction / Max. eff., GILZ induction: THP-1, prednisolone = 100%
Method: as §1

[3] = test system: human neonatal foreskin fibroblasts; assay: BioMAP assay HDF3CGF; format: cell-based; settings: 1 μM, prednisolone = 100%
Method: Next, effects of Org 214007-0 on the cytokine release by primary human whole blood cells treated with either LPS or anti-CD28/PMA were tested. […] These assays make use of different types of primary human cells, in this case coronary artery smooth muscle cells and neonatal foreskin fibroblasts, in an inflammatory environment, [28]. […] When all repressed and induced proteins are taken into account, a relative TI value for Org 214007-0 could be deduced of 1.7 in coronary artery smooth muscle cells and of 2.2 in neonatal foreskin fiboblasts.

[4] = test system: muscle tissue from arthritic mice; assay: Microarray on muscle tissue mRNA from CIA mice; format: in vivo, mouse; settings: day 21, 2.5 hours after final oral dose, 1.5 mg/kg prednisolone or 0.3 mg/kg Org 214007-0, prednisolone = 100%
Description: Besides these groups of mice, one group of healthy mice (sham-immunized and vehicle-treated) was included. Collected tissue was used to isolate mRNA for microarray analysis. […] We also calculated a mean fold change for all induced and repressed genes by both compounds derived from this microarray. […] Two and a half hours after the final treatment animals were sacrificed and samples were collected from the thigh muscle (musculus tensor fasciae latae and musculus rectus femoris). Samples were stored immediately at −80°C and send to Covance (Princeton, New Jersey) for RNA extraction and subsequent analysis of gene expression on the Mouse Genome 430A 2.0 array. For statistical analysis, the. CEL files obtained after hybridization were analyzed with the R (www.r-project.org) and the BioConductor software package (www.bioconductor.org) as described previously. Normalization was done using gcrma. Building of the experimental design and calculation of the ratios was done with the limma package. Differentially expressed probe sets were selected on basis of the fold change and the adjusted p-value (Benjamini-Hochberg correction). Multivariate data analysis and clustering was done with standard methods in the R software package (www.r-project.org). A therapeutic index for Org 214007-0 was calculated in the same way as was described for the THP-1 microarray data.

[5] = test system: anti-CD3-induced IL-2 release; assay: anti-CD3-induced IL-2 mouse model; format: in vivo; settings: oral; for ED50: Mus musculus, 1 hour before anti-CD3 i.p., Balb/c mice, read-out: ED50, reduction of anti-CD3-induced IL-2 serum levels; for efficacy, inhibition of anti-CD3-induced IL-2: relative to 10 mg/kg A420983 (100%)
Method: For both the LPS-induced TNFα as well as the anti-CD3 induced IL-2 model, female Balb/c mice of 8–12 week old were used. Mice were treated orally with 0.2 ml compound or vehicle (water/mannitol (5%) with 5% DMSO/5% chremophore for the LPS model or with 0.5% gelatine for the anti-CD3 model). One hour after oral treatment animals were challenged i.p. with 0.2 ml of either 20 μg/mouse LPS (Sigma, E. coli serotype 055:B5) or 5 µg/mouse hamster anti-CD3 monoclonal (BD Biosciences Pharmingen, art. nr. 553057, clone 145-2C11). Ninety minutes after LPS injection or 3 hours after anti-CD3 challenge, blood samples were collected and serum levels of TNFα or IL-2 were determined via specific ELISAs (BD Biosciences Pharmingen, San Diego, CA, USA). In the experiment that included treatment with RU486 to block GR, mice were dosed subcutaneously with 50 mg/kg RU486 30 minutes before the oral compound dosing. ED50 and % efficacy (maximal percentage inhibition of TNFα or IL-2 release) are determined using a 3 parameter sigmoidal curve calculation. Statistical analysis of the results was performed using an one-way ANOVA (log) test.

[6] = read-out: EC50, DUSP1 induction
[7] = read-out: EC50, FKBP51 induction

SMILES | Max. eff., mean repression of genes, microarray (THP-1 cells [1]) [%] | Max. eff., mean induction of genes, microarray (THP-1 cells [1]) [%] | EC50 (THP-1 cells [2]; [6]) [nM] | EC50 (THP-1 cells [2]; [7]) [nM] | EC50 (THP-1 cells [2]; read-out: EC50, GILZ induction) [nM] | Max. eff., DUSP1 induction (THP-1 cells [2]) | Max. eff., FKBP51 induction (THP-1 cells [2]) | Max. eff., GILZ induction (THP-1 cells [2]) | Max. eff., activation of PAI-1 [3] [%] | Max. eff., mean induction of genes, microarray [4] [%] | Max. eff., mean repression of genes, microarray [4] [%] | ED50 [5] [mg/kg] | efficacy, inhibition of anti-CD3-induced IL-2 [5] [%] | Max. eff., mean induction of genes, microarray (THP-1 cells [1]; listed as Org) [%]
C[C@]12C=CC(=O)C=C1CC[C@@H]1[C@@H]2[C@@H](O)C[C@@]2(C)[C@H]1CC[C@]2(O)C(=O)CO [prednisolone, reference compound] | 100 | 100 | 67.4 | 65.8 | 60.2 | 100% | 100% | 100% | 100 | 100 | 100 | ~10 | 75 | –
Cc1nnsc1C(=O)N[C@H]1CCN2c3ccc(C#N)cc3[C@@H](C)c3ccccc3[C@@H]2C1 [Org 214007-0] | 48.3 | – | 6.4 | 8 | 13.7 | 41 (±6) % | 42 (±8) % | 13 (±5) % | 55 | 25.7 | 87.7 | ~0.3 | 75 | 18.9
